Legend:
[1] = test system: Leishmania mexicana; test: Antileishmanial activity against Leishmania mexicana MNYC/BZ/62/M379 promastigotes assessed as parasite viability measured after 1 hr by alamarBlue staining based fluorescence analysis; type: functional; conditions: MNYC/BZ/62/M379, 1 h, read-out: ED50 (the source's name)
[2] = test system: Leishmania mexicana; test: Antileishmanial activity against axenic amastigote form of Leishmania mexicana MNYC/BZ/62/M379 assessed as parasite viability measured after 1 hr by alamarBlue staining based fluorescence analysis; type: functional; conditions: MNYC/BZ/62/M379, 1 h, read-out: ED50 (the source's name)
[3] = test system: Leishmania mexicana; test: Antileishmanial activity against Leishmania mexicana MNYC/BZ/62/M379 amastigotes infected in mouse RAW264.7 cells assessed as parasite viability measured after 24 hrs by alamarBlue staining based fluorescence analysis; type: functional
[4] = Cytotoxicity against mouse RAW264.7 cells measured after 24 hrs by alamarBlue staining based fluorescence analysis; type: cell-based; conditions: read-out: ED50

Question: For C[C@@H]1[C@H](O)[C@@H](C)/C=C/C=C/C=C/C=C/C=C/C=C/C=C/[C@H](O[C@@H]2O[C@H](C)[C@@H](O)[C@H](N)[C@@H]2O)C[C@@H]2O[C@](O)(C[C@@H](O)C[C@@H](O)[C@H](O)CC[C@@H](O)C[C@@H](O)CC(=O)O[C@H]1C)C[C@H](O)[C@H]2C(=O)O [AMPHOTERICIN B], which EC50 [1] is on record?
Answer: The EC50 was < 2000 nM.

Question: What about the EC50 [2] of the same compound?
Answer: Its EC50 is < 2000 nM.

Question: What about the ED50 [3] of the same compound?
Answer: Its ED50 is 195 nM.

Question: What about the CC50 at 24 h [4] of the same compound?
Answer: Its CC50 at 24 h is > 5000 nM.
